Experimental findings from ChEMBL document CHEMBL1201862, “PubChem BioAssay data set” (2004) are described below.

Structures are written as SMILES.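 96-well plates; 48 h exposure; 5 concentrations. Endpoints by linear interpolation between flanking doses. Not reached: highest tested concentration assigned. The concentration for 50% growth inhibition is given as GI50.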 Activity calls are given as the source filed them. Cut-off read from the data, not from the text of the source: active = GI50 up to about 1.1 µM and inactive = higher.

Some test systems named below: SNB-19; TK-10; HCT-15; CCRF-CEM; ACHN; NCI-H23; UACC-257; SK-OV-3; OVCAR-4; SK-MEL-28; NCI-H522; NCI-H226; IGROV-1; MOLT-4; M14; OVCAR-5.
Assay in all cases: inhibition of tumour cell growth, NCI panel, 48 h

Consider `NNC(=O)CCC(=O)Nc1ccc(Cl)cc1Cl`, for which the GI50 with SNB-19 is > 100 µM (inactive); with TK-10, > 100 µM (inactive); in the assay on HCT-15, 66.2 µM; in the assay with CCRF-CEM, > 100 µM (inactive); in the assay with ACHN, > 100 µM (inactive); in the assay with NCI-H23 it was > 100 µM (inactive). The GI50 in the assay with UACC-257, in the assay with SK-OV-3, in the assay with OVCAR-4, in the assay on SK-MEL-28, in the assay with NCI-H522 and in the assay with NCI-H226 was > 100 µM (inactive) throughout. Moreover, the GI50 is > 100 µM (inactive) in the assay on IGROV-1, > 100 µM (inactive) with MOLT-4, 45.1 µM (inactive) in the assay with M14 and > 100 µM (inactive) with OVCAR-5.
In the case of `O=C1CCC(=O)c2cc(Br)ccc2N1`, the GI50 in the assay with SNB-19 was > 100 µM (inactive); in the assay with TK-10, > 100 µM (inactive); in the assay with HCT-15, over 100 µM; with CCRF-CEM it was > 68.9 µM (inactive); in the assay with ACHN, > 100 µM (inactive); in the assay on NCI-H23, > 100 µM (inactive). Besides, the GI50 in the assay on UACC-257, in the assay on SK-OV-3, in the assay with OVCAR-4, in the assay with SK-MEL-28, with NCI-H522 and in the assay with NCI-H226 was > 100 µM (inactive) throughout. Moreover, the GI50 with IGROV-1, in the assay on MOLT-4, in the assay with M14 and with OVCAR-5 was > 100 µM (inactive) each time.
For the compound `CCOC(=O)C(/C(=N\NC(=O)OC)C(=O)Nc1cc(OC)ccc1OC)c1cnc2ccccc2n1` (stereo unspecified), the GI50 in the assay on TK-10 is > 100 µM (inactive); in the assay with HCT-15 it was over 100 µM; in the assay on CCRF-CEM it was > 100 µM (inactive); in the assay on ACHN, > 100 µM (inactive); in the assay on NCI-H23 it was > 100 µM (inactive); in the assay with UACC-257, > 100 µM (inactive). For the same compound, the GI50 with SK-OV-3, in the assay with OVCAR-4, in the assay on SK-MEL-28, in the assay with NCI-H522, in the assay on NCI-H226 and with IGROV-1 was > 100 µM (inactive) throughout. In addition, the GI50 with M14 was > 100 µM (inactive).
Regarding `O=C(c1ccccc1)[C@H]1Nc2cnccc2C2c3ccccc3CC21` (stereo partly specified), the GI50 was 26.7 µM (inactive) with SNB-19; 35.1 µM (inactive) in the assay on TK-10; 8.95 µM in the assay with HCT-15; 3.27 µM (inactive) in the assay with CCRF-CEM; 13.8 µM (inactive) with ACHN; 8.51 µM (inactive) in the assay on NCI-H23. Besides, the GI50 with UACC-257 was 13.2 µM (inactive); with SK-OV-3, 20.2 µM (inactive); in the assay with OVCAR-4, 0.564 µM (active); with SK-MEL-28, 14.1 µM (inactive); in the assay with NCI-H522 it was 2.78 µM (inactive); with NCI-H226, 4.26 µM (inactive). In addition, the GI50 in the assay on IGROV-1 is 24 µM (inactive); in the assay on MOLT-4 it was 2.99 µM (inactive); in the assay with M14, 6.82 µM (inactive); in the assay on OVCAR-5, 28.4 µM (inactive).
With `Cc1cc(Cl)ccc1NC(=O)C(=O)Cc1nc2ccc(C(=O)c3ccccc3)cc2nc1O`, the GI50 in the assay with SNB-19 was > 100 µM (inactive); in the assay on TK-10 it was > 100 µM (inactive); in the assay on HCT-15 it was over 100 µM; in the assay on CCRF-CEM it was 35.6 µM (inactive); in the assay with ACHN it was > 100 µM (inactive); with NCI-H23 it was > 100 µM (inactive). Further, the GI50 was > 100 µM (inactive) in the assay on UACC-257; > 100 µM (inactive) with SK-OV-3; > 100 µM (inactive) with OVCAR-4; > 100 µM (inactive) in the assay with SK-MEL-28; 39.4 µM (inactive) with NCI-H522; 64.7 µM (inactive) with NCI-H226. Also, the figures for the GI50 in the assay with IGROV-1, in the assay with MOLT-4 and in the assay with M14 were > 100 µM (inactive), 46.8 µM (inactive) and 96.6 µM (inactive), respectively.
